We go through 17 compounds from ChEMBL document CHEMBL1821720, “Discovery and hit-to-lead optimization of novel allosteric glucokinase activators” (Bioorg Med Chem Lett, 2011).

The target of one assay is T1, Hexokinase-4 (Homo sapiens) (UniProt P35557).
T1 sequence (whole entry): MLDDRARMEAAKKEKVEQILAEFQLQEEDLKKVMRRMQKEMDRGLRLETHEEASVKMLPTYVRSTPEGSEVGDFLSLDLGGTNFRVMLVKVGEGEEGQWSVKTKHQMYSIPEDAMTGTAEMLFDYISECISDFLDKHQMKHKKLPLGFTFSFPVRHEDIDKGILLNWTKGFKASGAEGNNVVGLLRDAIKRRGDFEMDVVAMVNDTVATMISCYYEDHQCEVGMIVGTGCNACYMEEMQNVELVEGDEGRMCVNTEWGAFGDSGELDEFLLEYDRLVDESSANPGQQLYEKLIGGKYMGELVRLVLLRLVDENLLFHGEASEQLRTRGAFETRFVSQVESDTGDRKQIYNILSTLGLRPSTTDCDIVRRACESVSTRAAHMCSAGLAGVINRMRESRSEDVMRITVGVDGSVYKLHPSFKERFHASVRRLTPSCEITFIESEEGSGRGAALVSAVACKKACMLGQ
The assay is described as follows: Activation of human recombinant glucokinase expressed in Escherichia coli coexpressing G6PDH at 10 uM using 20 mM glucose measured as ratio of enzyme activation in treated to untreated control by G6PDH coupled continuous spectrophotometric assay.
In the case of `CNC(=O)CCc1cc(C(=O)Nc2nc3c(s2)CCC3)c(C)o1`, the Ratio stood at 1.04.
Same read-out and setting: the figure for `Cc1cc(C(=O)Nc2nc3c(s2)CCC3(C)C)c(C)o1` is 0.95.
Turning to `COC(=O)CCc1cc(C(=O)Nc2nc3c(s2)CCC3)c(C)o1`, the Ratio worked out at 1.23.
For the compound `Cc1sc(-c2ccccc2S(C)(=O)=O)cc1C(=O)Nc1nc2c(s1)CCC2`, the Ratio came to 1.56.
On the same count and under the same terms, under `COC(=O)c1ccccc1-c1cc(C(=O)Nc2nc3c(s2)CCC3)c(C)o1` stands 1.1; under `COc1ccccc1-c1cc(C(=O)Nc2nc3c(s2)CCC3)c(C)o1`, 0.93; under `CC(=O)c1cc(C(=O)Nc2nc3c(s2)CCC3)c(C)o1`, 0.99.
On the same count and under the same terms, the figure for `CCc1sc(-c2ccccc2C(C)=O)cc1C(=O)Nc1nc2c(s1)CCC2` is 1.5; for `CCc1sc(-c2ccccc2S(C)(=O)=O)cc1C(=O)Nc1nc2c(s1)CCC2` it is 1.41; for `Cc1nc(C)c(C(=O)Nc2nc3c(s2)CCCC3)s1` it is 0.89.
In the case of `O=C(Nc1nc2c(s1)CCCC2)C1CCOC1` (stereo not drawn), the Ratio was 0.93.
On the same count and under the same terms, the figure for `CC(=O)CCc1cc(C(=O)Nc2nc3c(s2)CCC3)c(C)o1` is 1.44; for `CCc1nc(NC(=O)c2cc(C)oc2C)sc1CC` it is 0.96; for `Cc1cc(C(=O)Nc2nc3c(s2)CCCC3)no1` it is 1.06.
As to `CC(=O)c1cccc(-c2cc(C(=O)Nc3nc4c(s3)CCC4)c(C)o2)c1`, the Ratio turned out to be 0.93.
Same read-out and setting: under `Cc1oc(CO)cc1C(=O)Nc1nc2c(s1)CCC2` stands 1.08.
Same read-out and setting: under `Cc1oc(CCC(=O)N(C)C)cc1C(=O)Nc1nc2c(s1)CCC2` stands 1.29.

In a further assay the target is T1, Hexokinase-4 (Homo sapiens). Put plainly: Activation of human recombinant glucokinase expressed in Escherichia coli coexpressing G6PDH at 10 uM using 20 mM glucose measured as ratio of enzyme activation in compound treated to Ro-28-1675 by G6PDH coupled continuous spectrophotometric assay.
With `CNC(=O)CCc1cc(C(=O)Nc2nc3c(s2)CCC3)c(C)o1`, the Ratio was found to be 0.027.
Still for that read-out and setting: under `Cc1cc(C(=O)Nc2nc3c(s2)CCC3(C)C)c(C)o1` stands -0.032.
`COC(=O)CCc1cc(C(=O)Nc2nc3c(s2)CCC3)c(C)o1`: the Ratio is 0.154.
Still for that read-out and setting: the figure for `Cc1sc(-c2ccccc2S(C)(=O)=O)cc1C(=O)Nc1nc2c(s1)CCC2` is 0.495; for `COC(=O)c1ccccc1-c1cc(C(=O)Nc2nc3c(s2)CCC3)c(C)o1` it is 0.054.
For the compound `COc1ccccc1-c1cc(C(=O)Nc2nc3c(s2)CCC3)c(C)o1`, the Ratio was -0.046.
Still for that read-out and setting: under `CC(=O)c1cc(C(=O)Nc2nc3c(s2)CCC3)c(C)o1` stands -0.003; under `CCc1sc(-c2ccccc2C(C)=O)cc1C(=O)Nc1nc2c(s1)CCC2`, 0.446; under `CCc1sc(-c2ccccc2S(C)(=O)=O)cc1C(=O)Nc1nc2c(s1)CCC2`, 0.363.
Regarding `Cc1nc(C)c(C(=O)Nc2nc3c(s2)CCCC3)s1`, the Ratio was -0.066.
Same read-out and setting: the figure for `O=C(Nc1nc2c(s1)CCCC2)C1CCOC1` (stereo not drawn) is -0.041; for `CC(=O)CCc1cc(C(=O)Nc2nc3c(s2)CCC3)c(C)o1` it is 0.287.
On the same count and under the same terms, under `CCc1nc(NC(=O)c2cc(C)oc2C)sc1CC` stands -0.022; under `Cc1cc(C(=O)Nc2nc3c(s2)CCCC3)no1`, 0.036; under `CC(=O)c1cccc(-c2cc(C(=O)Nc3nc4c(s3)CCC4)c(C)o2)c1`, -0.039.
Still for that read-out and setting: under `Cc1oc(CO)cc1C(=O)Nc1nc2c(s1)CCC2` stands 0.05; under `Cc1oc(CCC(=O)N(C)C)cc1C(=O)Nc1nc2c(s1)CCC2`, 0.187.

The target is the same in another assay. The assay is described as follows: Activation of human recombinant glucokinase expressed in Escherichia coli coexpressing G6PDH at 10 uM using 5 mM glucose measured as ratio of enzyme activation in compound treated to Ro-28-1675 by G6PDH coupled continuous spectrophotometric assay.
As to `CNC(=O)CCc1cc(C(=O)Nc2nc3c(s2)CCC3)c(C)o1`, the Ratio worked out at 0.032.
The same measure, in the same setting: the figure for `Cc1cc(C(=O)Nc2nc3c(s2)CCC3(C)C)c(C)o1` is 0.001; for `COC(=O)CCc1cc(C(=O)Nc2nc3c(s2)CCC3)c(C)o1` it is 0.151.
On the same count and under the same terms, under `Cc1sc(-c2ccccc2S(C)(=O)=O)cc1C(=O)Nc1nc2c(s1)CCC2` stands 0.642; under `COC(=O)c1ccccc1-c1cc(C(=O)Nc2nc3c(s2)CCC3)c(C)o1`, 0.098; under `COc1ccccc1-c1cc(C(=O)Nc2nc3c(s2)CCC3)c(C)o1`, -0.023.
On the same count and under the same terms, the figure for `CC(=O)c1cc(C(=O)Nc2nc3c(s2)CCC3)c(C)o1` is 0.015; for `CCc1sc(-c2ccccc2C(C)=O)cc1C(=O)Nc1nc2c(s1)CCC2` it is 0.446; for `CCc1sc(-c2ccccc2S(C)(=O)=O)cc1C(=O)Nc1nc2c(s1)CCC2` it is 0.537.
With `Cc1nc(C)c(C(=O)Nc2nc3c(s2)CCCC3)s1`, the Ratio came out at 0.01.
As to `O=C(Nc1nc2c(s1)CCCC2)C1CCOC1` (stereo not drawn), the Ratio was -0.006.
With `CC(=O)CCc1cc(C(=O)Nc2nc3c(s2)CCC3)c(C)o1`, the Ratio came to 0.29.
Consider `CCc1nc(NC(=O)c2cc(C)oc2C)sc1CC`, for which the Ratio is 0.022.
On the same count and under the same terms, the figure for `Cc1cc(C(=O)Nc2nc3c(s2)CCCC3)no1` is 0.022; for `CC(=O)c1cccc(-c2cc(C(=O)Nc3nc4c(s3)CCC4)c(C)o2)c1` it is 0.
`Cc1oc(CO)cc1C(=O)Nc1nc2c(s1)CCC2`: the Ratio was found to be 0.069.
Still for that read-out and setting: under `Cc1oc(CCC(=O)N(C)C)cc1C(=O)Nc1nc2c(s1)CCC2` stands 0.178.

For another assay the target is unchanged. The assay is described as follows: Activation of human recombinant glucokinase expressed in Escherichia coli coexpressing G6PDH at 10 uM using 5 mM glucose measured as ratio of enzyme activation in treated to untreated control by G6PDH coupled continuous spectrophotometric assay.
Consider `CNC(=O)CCc1cc(C(=O)Nc2nc3c(s2)CCC3)c(C)o1`, for which the Ratio is 1.12.
The same measure, in the same setting: the figure for `Cc1cc(C(=O)Nc2nc3c(s2)CCC3(C)C)c(C)o1` is 1; for `COC(=O)CCc1cc(C(=O)Nc2nc3c(s2)CCC3)c(C)o1` it is 1.56; for `Cc1sc(-c2ccccc2S(C)(=O)=O)cc1C(=O)Nc1nc2c(s1)CCC2` it is 3.11.
Still for that read-out and setting: under `COC(=O)c1ccccc1-c1cc(C(=O)Nc2nc3c(s2)CCC3)c(C)o1` stands 1.36.
As for `COc1ccccc1-c1cc(C(=O)Nc2nc3c(s2)CCC3)c(C)o1`, the Ratio was 0.92.
Same read-out and setting: under `CC(=O)c1cc(C(=O)Nc2nc3c(s2)CCC3)c(C)o1` stands 1.06; under `CCc1sc(-c2ccccc2C(C)=O)cc1C(=O)Nc1nc2c(s1)CCC2`, 2.46; under `CCc1sc(-c2ccccc2S(C)(=O)=O)cc1C(=O)Nc1nc2c(s1)CCC2`, 2.76.
On the same count and under the same terms, the figure for `Cc1nc(C)c(C(=O)Nc2nc3c(s2)CCCC3)s1` is 1.04.
As for `O=C(Nc1nc2c(s1)CCCC2)C1CCOC1` (stereo not drawn), the Ratio was 0.98.
On to `CC(=O)CCc1cc(C(=O)Nc2nc3c(s2)CCC3)c(C)o1`, for which the Ratio came to 2.07.
Same read-out and setting: the figure for `CCc1nc(NC(=O)c2cc(C)oc2C)sc1CC` is 1.09; for `Cc1cc(C(=O)Nc2nc3c(s2)CCCC3)no1` it is 1.11.
`CC(=O)c1cccc(-c2cc(C(=O)Nc3nc4c(s3)CCC4)c(C)o2)c1`: the Ratio came out at 1.
In the case of `Cc1oc(CO)cc1C(=O)Nc1nc2c(s1)CCC2`, the Ratio came out at 1.3.
Same read-out and setting: under `Cc1oc(CCC(=O)N(C)C)cc1C(=O)Nc1nc2c(s1)CCC2` stands 1.62.
